Test results reported in publication PMC6416464 (Drug Metabolism Letters, 2018).

Legend:
[1] = molecular target: CYP2C9 (Homo sapiens, UniProt P11712); test: CYP inhibition in human liver microsomes, CYP2C9
[2] = molecular target: rCYP2C9 (Homo sapiens, UniProt P11712); test: Metabolic stability / reaction phenotyping with recombinant human CYP2C9
[3] = Metabolic stability, incubation with human liver microsomes; details: 1 µM test compound, 0.5 mg/mL protein
[4] = cited from earlier work
[5] = molecular target: rCYP3A4 (Homo sapiens, UniProt P08684)
Sequence of rCYP3A4 (P08684 whole entry): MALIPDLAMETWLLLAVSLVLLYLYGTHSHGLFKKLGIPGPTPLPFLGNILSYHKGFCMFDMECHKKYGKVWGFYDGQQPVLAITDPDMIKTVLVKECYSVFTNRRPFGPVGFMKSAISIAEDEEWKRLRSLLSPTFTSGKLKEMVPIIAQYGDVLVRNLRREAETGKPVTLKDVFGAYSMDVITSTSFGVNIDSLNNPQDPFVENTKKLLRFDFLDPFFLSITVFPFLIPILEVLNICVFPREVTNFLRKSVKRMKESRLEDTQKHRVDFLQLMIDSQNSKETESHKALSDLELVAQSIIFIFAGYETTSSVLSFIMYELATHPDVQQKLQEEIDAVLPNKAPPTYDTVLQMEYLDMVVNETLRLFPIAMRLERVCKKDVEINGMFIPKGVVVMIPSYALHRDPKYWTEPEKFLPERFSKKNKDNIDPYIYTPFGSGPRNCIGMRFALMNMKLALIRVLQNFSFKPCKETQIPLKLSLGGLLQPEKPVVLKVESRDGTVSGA

[6] = molecular target: rCYP2D6 (Homo sapiens, UniProt P10635); test: Metabolic stability / reaction phenotyping with recombinant human CYP2D6
Sequence of rCYP2D6 (P10635 whole entry): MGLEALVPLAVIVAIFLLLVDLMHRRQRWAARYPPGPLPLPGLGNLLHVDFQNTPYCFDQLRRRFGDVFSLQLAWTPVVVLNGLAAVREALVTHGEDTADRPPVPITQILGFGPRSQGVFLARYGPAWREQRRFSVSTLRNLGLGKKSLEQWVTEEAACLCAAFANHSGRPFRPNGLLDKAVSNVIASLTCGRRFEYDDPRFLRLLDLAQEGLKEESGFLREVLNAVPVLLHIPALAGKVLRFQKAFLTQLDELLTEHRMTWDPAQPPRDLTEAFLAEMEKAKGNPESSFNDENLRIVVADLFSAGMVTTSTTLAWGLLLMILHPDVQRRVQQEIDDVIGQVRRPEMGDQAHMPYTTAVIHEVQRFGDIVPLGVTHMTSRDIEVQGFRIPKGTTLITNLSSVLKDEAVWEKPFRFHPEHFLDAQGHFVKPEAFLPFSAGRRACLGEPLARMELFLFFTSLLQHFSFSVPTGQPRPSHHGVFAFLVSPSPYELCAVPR

[7] = molecular target: T1, CYP1A2 (Homo sapiens, UniProt P05177); test: CYP inhibition in human liver microsomes, CYP1A2
T1 sequence (P05177 1-516): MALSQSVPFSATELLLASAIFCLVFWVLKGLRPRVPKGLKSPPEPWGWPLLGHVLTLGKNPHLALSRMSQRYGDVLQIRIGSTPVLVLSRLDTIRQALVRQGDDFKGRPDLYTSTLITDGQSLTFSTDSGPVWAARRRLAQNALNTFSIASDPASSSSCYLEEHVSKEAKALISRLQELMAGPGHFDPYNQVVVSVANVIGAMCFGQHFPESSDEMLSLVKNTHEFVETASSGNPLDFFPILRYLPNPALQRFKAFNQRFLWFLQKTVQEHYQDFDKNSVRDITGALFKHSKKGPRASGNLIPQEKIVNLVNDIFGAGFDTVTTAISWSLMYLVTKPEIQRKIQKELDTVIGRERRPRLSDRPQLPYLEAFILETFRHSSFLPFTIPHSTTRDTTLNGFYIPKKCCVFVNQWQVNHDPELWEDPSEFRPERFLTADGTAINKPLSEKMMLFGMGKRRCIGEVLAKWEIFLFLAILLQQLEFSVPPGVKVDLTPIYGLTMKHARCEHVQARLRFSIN

[8] = molecular target: T2, rCYP1A2 (Homo sapiens, UniProt P05177); test: Metabolic stability / reaction phenotyping with recombinant human CYP1A2
T2 sequence (P05177 1-516): T1 sequence (P05177 1-516)

[9] = molecular target: T3, rCYP2C8 (Homo sapiens, UniProt P10632); test: Metabolic stability / reaction phenotyping with recombinant human CYP2C8; details: 1 µM test compound; 100 pmol/mL; 30 min
T3 sequence (P10632 1-490): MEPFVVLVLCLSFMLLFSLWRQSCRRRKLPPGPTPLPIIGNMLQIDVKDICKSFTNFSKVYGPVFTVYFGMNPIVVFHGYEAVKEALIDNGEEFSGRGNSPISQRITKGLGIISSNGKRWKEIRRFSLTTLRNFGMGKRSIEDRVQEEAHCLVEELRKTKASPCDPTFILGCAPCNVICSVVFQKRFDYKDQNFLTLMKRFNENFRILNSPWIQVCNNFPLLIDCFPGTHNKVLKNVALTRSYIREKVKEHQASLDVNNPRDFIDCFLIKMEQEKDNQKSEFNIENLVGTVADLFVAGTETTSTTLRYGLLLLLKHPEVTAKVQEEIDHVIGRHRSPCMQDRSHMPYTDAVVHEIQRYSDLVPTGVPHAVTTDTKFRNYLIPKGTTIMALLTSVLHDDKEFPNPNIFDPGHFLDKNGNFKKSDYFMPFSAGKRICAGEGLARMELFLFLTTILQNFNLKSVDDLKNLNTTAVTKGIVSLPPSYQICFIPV

[10] = molecular target: T4, CYP3A4 (Homo sapiens, UniProt P08684); test: in vitro; details: microsomes, pH 7.4
T4 sequence (P08684 2-503): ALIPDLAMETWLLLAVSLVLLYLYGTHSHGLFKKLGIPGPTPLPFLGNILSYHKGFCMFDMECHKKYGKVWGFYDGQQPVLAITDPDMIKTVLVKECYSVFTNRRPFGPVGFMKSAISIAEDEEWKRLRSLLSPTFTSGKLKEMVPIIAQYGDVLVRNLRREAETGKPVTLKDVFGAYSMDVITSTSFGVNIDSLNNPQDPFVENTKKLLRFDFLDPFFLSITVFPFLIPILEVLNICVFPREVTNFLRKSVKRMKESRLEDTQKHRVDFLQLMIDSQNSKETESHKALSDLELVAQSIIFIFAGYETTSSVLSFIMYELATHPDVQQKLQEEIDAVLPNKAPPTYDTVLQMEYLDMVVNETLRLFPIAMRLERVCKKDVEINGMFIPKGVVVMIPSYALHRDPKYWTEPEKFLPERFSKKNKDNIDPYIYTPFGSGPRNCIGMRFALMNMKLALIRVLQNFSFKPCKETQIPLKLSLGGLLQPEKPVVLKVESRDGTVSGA

[11] = molecular target: CYP2C19 (Homo sapiens, UniProt P33261); test: CYP inhibition in human liver microsomes, CYP2C19
Sequence of CYP2C19 (P33261 whole entry): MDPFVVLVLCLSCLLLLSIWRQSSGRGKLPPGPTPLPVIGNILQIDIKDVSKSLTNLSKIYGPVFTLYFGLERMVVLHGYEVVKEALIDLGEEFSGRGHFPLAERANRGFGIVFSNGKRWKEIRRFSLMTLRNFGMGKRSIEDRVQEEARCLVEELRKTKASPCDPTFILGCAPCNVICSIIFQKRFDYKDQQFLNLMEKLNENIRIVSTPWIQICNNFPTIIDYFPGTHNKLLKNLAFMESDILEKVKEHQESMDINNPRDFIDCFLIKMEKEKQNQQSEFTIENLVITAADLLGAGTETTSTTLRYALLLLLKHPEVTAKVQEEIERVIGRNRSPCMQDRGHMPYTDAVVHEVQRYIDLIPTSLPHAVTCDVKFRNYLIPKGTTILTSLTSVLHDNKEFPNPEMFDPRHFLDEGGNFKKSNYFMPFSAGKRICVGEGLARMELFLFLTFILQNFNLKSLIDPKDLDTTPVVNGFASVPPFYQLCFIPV

[12] = molecular target: T5, CYP2C8 (Homo sapiens, UniProt P10632); test: CYP inhibition in human liver microsomes, CYP2C8
T5 sequence (P10632 1-490): T3 sequence (P10632 1-490)

[13] = molecular target: rCYP2C19 (Homo sapiens, UniProt P33261); test: Metabolic stability / reaction phenotyping with recombinant human CYP2C19
Sequence of rCYP2C19 (P33261 whole entry): as above

[14] = molecular target: T4, CYP3A4; test: in vitro; details: microsomes, pH 7.4, % Inhibition of Control Activity CYP3A4 (substrate, testosterone)
[15] = Metabolic stability, incubation with human liver cytosol; format: in vitro ADME; details: 1 µM test compound, 1 mg/mL protein
[16] = molecular target: T4, CYP3A4; test: biochemical
[17] = 1 µM test compound, 100 pmol/mL, 30 min
[18] = human, recombinant human CYP2C9, 1 µM, pH 7.4
[19] = human, recombinant enzyme, pH 7.4
[20] = human, recombinant human CYP2D6, 1 µM, pH 7.4
[21] = human, recombinant human CYP1A2, 1 µM, pH 7.4
[22] = human, human liver microsomes, pH 7.4, probe paclitaxel
[23] = human, recombinant human CYP2C19, 1 µM, pH 7.4

Sequence of rCYP2C9 (P11712 whole entry): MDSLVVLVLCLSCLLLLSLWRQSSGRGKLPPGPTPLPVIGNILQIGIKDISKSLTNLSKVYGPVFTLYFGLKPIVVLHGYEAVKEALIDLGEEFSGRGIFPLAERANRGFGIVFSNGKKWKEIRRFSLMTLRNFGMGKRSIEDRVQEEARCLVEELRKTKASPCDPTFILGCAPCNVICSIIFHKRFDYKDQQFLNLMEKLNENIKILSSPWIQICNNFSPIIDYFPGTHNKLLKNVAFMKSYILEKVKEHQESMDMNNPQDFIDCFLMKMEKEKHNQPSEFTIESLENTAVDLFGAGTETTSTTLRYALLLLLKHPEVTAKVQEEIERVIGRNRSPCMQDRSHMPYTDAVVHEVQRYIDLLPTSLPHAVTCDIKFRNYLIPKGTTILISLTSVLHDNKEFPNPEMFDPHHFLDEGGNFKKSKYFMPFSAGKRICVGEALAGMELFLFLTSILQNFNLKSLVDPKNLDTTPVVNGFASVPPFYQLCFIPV
Sequence of CYP2C9 (P11712 whole entry): as above

## CSc1nc2cc(Cl)c(Oc3cccc(Cl)c3Cl)cc2[nH]1 [Triclabendazole, reference compound]
[1]
  IC50: 1.17 µM
[2]; [17]
  % Metabolized at 30 min Incubation with Human Liver Fractions/Enzymes rCYP2C9: 55.00%
[2]; [18]
  % Contribution of CYP Enzymes (fmCYP) in Metabolism, CYP2C9: 22.29%
  Predicted Microsomal Clint, CYP2C9: 25.548 µL/min/mg Protein
  rCYP Clint, CYP2C9: 0.266 µL/min/pmol
[3]
  % Metabolized at 30 min Incubation with Human Liver Fractions/Enzymes HLM: 51.68%
[4]; human patients at therapeutic doses of triclabendazole
  Cmax: 1160 nM
[4]; humans, standard dose of triclabendazole of 10 mg/kg
  peak concentration: 1.16 µM
[5]; [17]
  % Metabolized at 30 min Incubation with Human Liver Fractions/Enzymes rCYP3A4: 11.70%
[5]; human, pH 7.4
  Predicted Microsomal Clint, CYP3A4: 4.604 µL/min/mg Protein
[5]; [19]
  % Contribution of CYP Enzymes (fmCYP) in Metabolism, CYP3A4: 4.02%
  rCYP Clint, CYP3A4: 0.041 µL/min/pmol
[6]; [17]
  % Metabolized at 30 min Incubation with Human Liver Fractions/Enzymes rCYP2D6: 73.66%
[6]; [20]
  % Contribution of CYP Enzymes (fmCYP) in Metabolism, CYP2D6: 3.88%
  Predicted Microsomal Clint, CYP2D6: 4.448 µL/min/mg Protein
  rCYP Clint, CYP2D6: 0.445 µL/min/pmol
[7]
  IC50: 1.07 µM
[8]; [17]
  % Metabolized at 30 min Incubation with Human Liver Fractions/Enzymes rCYP1A2: 97.14%
[8]; [21]
  % Contribution of CYP Enzymes (fmCYP) in Metabolism, CYP1A2: 53.74%
  Predicted Microsomal Clint, CYP1A2: 61.600 µL/min/mg Protein
  rCYP Clint, CYP1A2: 1.185 µL/min/pmol
[9]
  % Metabolized at 30 min Incubation with Human Liver Fractions/Enzymes rCYP2C8: 0.00%
[10]
  inhibition at 2 µM: < 0%
  inhibition at 10 µM: < 0%
[11]
  IC50: 0.25 µM
[12]; IC50 CYP 2C8, HLM
  IC50: 3.31 µM
[12]; [22]
  inhibition at 2 µM: 7.09%
  inhibition at 10 µM: 79.7%
[13]; [17]
  % Metabolized at 30 min Incubation with Human Liver Fractions/Enzymes rCYP2C19: 94.55%
[13]; [23]
  % Contribution of CYP Enzymes (fmCYP) in Metabolism, CYP2C19: 16.07%
  Predicted Microsomal Clint, CYP2C19: 18.415 µL/min/mg Protein
  rCYP Clint, CYP2C19: 0.969 µL/min/pmol
[14]
  inhibition at 2 µM: 13.5%
  inhibition at 10 µM: 52.9%
[15]
  % Metabolized at 30 min Incubation with Human Liver Fractions/Enzymes Cytosol: 12.40%
[16]
  IC50: 15.1 µM
